Activity calls are given as the source filed them. The calls are words filed in the database; no cut-off is given here.
Legend:
[1] = target: NT-3 growth factor receptor (Homo sapiens) (UniProt Q16288); experiment: Inhibition of TRKC (unknown origin) at 1 uM
[2] = Metabolic stability in monkey liver microsomes assessed as rate constant; format: ADME, Macaca mulatta, Microsome; details: rhesus monkey
[3] = target: Rho-associated protein kinase 1 (Homo sapiens) (UniProt Q13464); experiment: Inhibition of ROCK1 (unknown origin) at 1 uM
[4] = target: Tyrosine-protein kinase ITK/TSK (Homo sapiens) (UniProt Q08881); experiment: Inhibition of ITK (unknown origin) at 1 uM
[5] = target: Mitogen-activated protein kinase 14 (Homo sapiens) (UniProt Q16539); experiment: Inhibition of p38alpha (unknown origin) at 1 uM
[6] = Apparent permeability across basolateral to apical side in human Caco-2 cells; format: ADME, cell-based
[7] = target: Tau-tubulin kinase 2 (Homo sapiens) (UniProt Q6IQ55); experiment: Inhibition of TTBK2 (unknown origin) at 1 uM
[8] = target: Protein kinase C iota type (Homo sapiens) (UniProt P41743); experiment: Inhibition of PKCiota (unknown origin)at 1 uM
[9] = target: Serine/threonine-protein kinase SIK3 (Homo sapiens) (UniProt Q9Y2K2); experiment: Inhibition of SIK3 (unknown origin) at 1 uM
[10] = target: Activated CDC42 kinase 1 (Homo sapiens) (UniProt Q07912); experiment: Inhibition of ACK1 (unknown origin) at 1 uM
[11] = Protein binding in ICR mouse plasma by equilibrium dialysis; format: ADME, cell-free; details: read-out: PPB (converted)
[12] = target: Beta-adrenergic receptor kinase 1 (Homo sapiens) (UniProt P25098); experiment: Inhibition of GRK2 (unknown origin) at 1 uM
[13] = target: Fibroblast growth factor receptor 1 (Homo sapiens) (UniProt P11362); experiment: Inhibition of FGFR1 (unknown origin) at 1 uM
[14] = Metabolic stability in mouse liver microsomes assessed as rate constant; format: ADME, Microsome
[15] = target: Tyrosine-protein kinase ZAP-70 (Homo sapiens) (UniProt P43403); experiment: Inhibition of ZAP70 (unknown origin) at 1 uM
[16] = target: Serine/threonine-protein kinase haspin (Homo sapiens) (UniProt Q8TF76); experiment: Inhibition of haspin (unknown origin) at 1 uM
[17] = target: Serine/threonine-protein kinase 38-like (Homo sapiens) (UniProt Q9Y2H1); experiment: Inhibition of STK38L (unknown origin) at 1 uM
Mus musculus [18] = experiment: In vivo inhibition of IDO2 in BALB/c mouse xenografted with human HCT-116 cells assessed as suppression of IDO2 expression in tumor by immunohistochemical assay; format: functional, organism-based
[19] = target: Dual specificity testis-specific protein kinase 2 (Homo sapiens) (UniProt Q96S53); experiment: Inhibition of TESK2 (unknown origin) at 1 uM
[20] = target: Interleukin-1 receptor-associated kinase 1 (Homo sapiens) (UniProt P51617); experiment: Inhibition of IRAK1 (unknown origin) at 1 uM
[21] = target: Myosin light chain kinase family member 4 (Homo sapiens) (UniProt Q86YV6); experiment: Inhibition of MYLK4 (unknown origin) at 1 uM
Mus musculus [22] = experiment: In vivo inhibition of TDO in BALB/c mouse xenografted with human HCT-116 cells assessed as suppression of TDO mRNA expression in tumor by quantitative RT-PCR analysis; format: functional, organism-based
[23] = target: RAC-alpha serine/threonine-protein kinase (Homo sapiens) (UniProt P31749); experiment: Inhibition of AKT1 (unknown origin) at 1 uM
[24] = Clearance in mouse liver microsomes; format: ADME, Microsome; details: read-out: CLH
[25] = target: Mitogen-activated protein kinase 3 (Homo sapiens) (UniProt P27361); experiment: Inhibition of ERK1 (unknown origin) at 1 uM
[26] = target: Tyrosine-protein kinase JAK3 (Homo sapiens) (UniProt P52333); experiment: Inhibition of JAK3 (unknown origin) at 1 uM
[27] = target: Tyrosine-protein kinase Mer (Homo sapiens) (UniProt Q12866); experiment: Inhibition of c-MER (unknown origin) at 1 uM
[28] = target: Mast/stem cell growth factor receptor Kit (Homo sapiens) (UniProt P10721); experiment: Inhibition of c-KIT (unknown origin) at 1 uM
[29] = target: Dual specificity mitogen-activated protein kinase kinase 3 (Homo sapiens) (UniProt P46734); experiment: Inhibition of MEK3 (unknown origin) at 1 uM
[30] = target: Calcium/calmodulin-dependent protein kinase type 1 (Homo sapiens) (UniProt Q14012); experiment: Inhibition of CAMK1A (unknown origin) at 1 uM
[31] = target: Serine/threonine-protein kinase SBK1 (Homo sapiens) (UniProt Q52WX2); experiment: Inhibition of SBK1 (unknown origin) at 1 uM
[32] = target: Serine/threonine-protein kinase N1 (Homo sapiens) (UniProt Q16512); experiment: Inhibition of PKN1 (unknown origin) at 1 uM
[33] = Intrinsic clearance in monkey liver microsomes; format: ADME, Macaca mulatta, Microsome; details: rhesus monkey, read-out: CLH
[34] = target: Activin receptor type-1-like (Homo sapiens) (UniProt P37023); experiment: Inhibition of ALK1 (unknown origin) at 1 uM
[35] = target: Fibroblast growth factor receptor 2 (Homo sapiens) (UniProt P21802); experiment: Inhibition of FGFR2 (unknown origin) at 1 uM
[36] = target: Protein kinase C epsilon type (Homo sapiens) (UniProt Q02156); experiment: Inhibition of PKCepsilon (unknown origin)at 1 uM
[37] = target: Receptor tyrosine-protein kinase erbB-2 (Homo sapiens) (UniProt P04626); experiment: Inhibition of ERBB2 (unknown origin) at 1 uM
[38] = target: Serine/threonine-protein kinase MRCK gamma (Homo sapiens) (UniProt Q6DT37); experiment: Inhibition of DMPK2 (unknown origin) at 1 uM
[39] = target: Ephrin type-A receptor 6 (Homo sapiens) (UniProt Q9UF33); experiment: Inhibition of EPHA6 (unknown origin) at 1 uM
[40] = target: Calcium/calmodulin-dependent protein kinase type 1D (Homo sapiens) (UniProt Q8IU85); experiment: Inhibition of CAMK1D (unknown origin) at 1 uM
[41] = target: Serine/threonine-protein kinase 4 (Homo sapiens) (UniProt Q13043); experiment: Inhibition of MST1 (unknown origin) at 1 uM
HCT-116 = experiment: Antitumor immunity in BALB/c mouse xenografted with human HCT-116 cells assessed as necrotic Treg cells in spleen by propidium iodide staining based flow cytometry analysis (reference value: 1.47 %); format: functional
[42] = target: Vascular endothelial growth factor receptor 2 (Homo sapiens) (UniProt P35968); experiment: Inhibition of KDR (unknown origin) at 1 uM
[43] = target: Serine/threonine-protein kinase PAK 3 (Homo sapiens) (UniProt O75914); experiment: Inhibition of PAK3 (unknown origin) at 1 uM
[44] = target: Death-associated protein kinase 3 (Homo sapiens) (UniProt O43293); experiment: Inhibition of ZIPK (unknown origin) at 1 uM
[45] = target: Dual specificity protein kinase CLK2 (Homo sapiens) (UniProt P49760); experiment: Inhibition of CLK2 (unknown origin) at 1 uM
[46] = Clearance in dog liver microsomes; format: ADME, Canis lupus familiaris, Microsome; details: read-out: CLH

Tyrosine-protein kinase ITK/TSK (Homo sapiens), sequence (Q08881 whole entry): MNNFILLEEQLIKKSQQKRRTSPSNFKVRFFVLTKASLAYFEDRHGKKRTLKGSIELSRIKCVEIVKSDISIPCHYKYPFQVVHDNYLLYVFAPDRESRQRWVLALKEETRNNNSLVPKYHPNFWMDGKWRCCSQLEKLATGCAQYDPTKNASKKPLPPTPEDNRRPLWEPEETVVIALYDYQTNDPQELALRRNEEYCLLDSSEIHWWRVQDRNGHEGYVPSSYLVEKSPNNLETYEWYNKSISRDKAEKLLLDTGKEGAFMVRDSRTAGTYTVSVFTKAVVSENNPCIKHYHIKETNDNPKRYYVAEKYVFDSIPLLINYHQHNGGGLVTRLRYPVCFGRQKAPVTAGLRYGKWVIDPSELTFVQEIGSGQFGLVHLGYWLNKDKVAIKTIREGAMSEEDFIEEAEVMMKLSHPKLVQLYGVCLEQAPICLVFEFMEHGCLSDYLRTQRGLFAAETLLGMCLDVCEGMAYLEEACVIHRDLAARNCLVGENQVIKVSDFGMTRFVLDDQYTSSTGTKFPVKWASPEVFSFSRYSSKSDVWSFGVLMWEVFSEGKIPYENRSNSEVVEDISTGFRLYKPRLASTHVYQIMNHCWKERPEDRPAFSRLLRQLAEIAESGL
Serine/threonine-protein kinase SIK3 (Homo sapiens), sequence (Q9Y2K2 whole entry, looked up): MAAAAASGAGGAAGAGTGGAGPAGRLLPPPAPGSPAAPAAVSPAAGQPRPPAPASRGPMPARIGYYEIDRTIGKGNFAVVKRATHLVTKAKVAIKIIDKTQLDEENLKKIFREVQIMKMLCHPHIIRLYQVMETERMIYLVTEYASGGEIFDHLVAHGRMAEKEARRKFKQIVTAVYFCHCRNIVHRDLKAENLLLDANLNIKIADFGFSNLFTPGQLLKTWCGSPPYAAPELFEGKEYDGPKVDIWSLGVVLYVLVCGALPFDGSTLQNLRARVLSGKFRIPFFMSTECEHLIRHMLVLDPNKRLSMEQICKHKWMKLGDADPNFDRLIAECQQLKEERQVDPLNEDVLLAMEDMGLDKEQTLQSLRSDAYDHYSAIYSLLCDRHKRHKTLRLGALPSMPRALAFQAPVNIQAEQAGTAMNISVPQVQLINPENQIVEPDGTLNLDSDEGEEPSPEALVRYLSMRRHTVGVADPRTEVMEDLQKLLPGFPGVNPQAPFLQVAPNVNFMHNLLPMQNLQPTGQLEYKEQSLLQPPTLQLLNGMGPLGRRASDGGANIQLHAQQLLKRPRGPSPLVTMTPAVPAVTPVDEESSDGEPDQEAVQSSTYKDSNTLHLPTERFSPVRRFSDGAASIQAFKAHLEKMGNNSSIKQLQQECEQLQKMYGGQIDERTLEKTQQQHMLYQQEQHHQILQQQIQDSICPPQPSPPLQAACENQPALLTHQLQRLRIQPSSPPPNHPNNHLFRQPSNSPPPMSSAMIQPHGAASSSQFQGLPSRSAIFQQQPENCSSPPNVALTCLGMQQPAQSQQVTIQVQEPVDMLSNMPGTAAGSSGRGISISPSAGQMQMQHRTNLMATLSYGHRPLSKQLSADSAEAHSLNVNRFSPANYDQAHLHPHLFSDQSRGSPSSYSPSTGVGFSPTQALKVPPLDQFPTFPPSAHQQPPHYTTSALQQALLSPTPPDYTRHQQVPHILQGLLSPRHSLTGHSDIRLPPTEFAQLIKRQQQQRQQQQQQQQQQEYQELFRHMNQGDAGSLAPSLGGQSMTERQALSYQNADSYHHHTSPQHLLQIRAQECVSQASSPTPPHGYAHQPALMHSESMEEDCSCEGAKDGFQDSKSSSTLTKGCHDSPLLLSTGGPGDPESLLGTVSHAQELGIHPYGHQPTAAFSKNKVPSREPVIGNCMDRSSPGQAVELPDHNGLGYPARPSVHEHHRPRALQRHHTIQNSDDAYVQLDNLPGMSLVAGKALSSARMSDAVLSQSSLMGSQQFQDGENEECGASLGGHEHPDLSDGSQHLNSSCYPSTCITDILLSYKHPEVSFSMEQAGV
Tyrosine-protein kinase Mer (Homo sapiens), sequence (Q12866 whole entry): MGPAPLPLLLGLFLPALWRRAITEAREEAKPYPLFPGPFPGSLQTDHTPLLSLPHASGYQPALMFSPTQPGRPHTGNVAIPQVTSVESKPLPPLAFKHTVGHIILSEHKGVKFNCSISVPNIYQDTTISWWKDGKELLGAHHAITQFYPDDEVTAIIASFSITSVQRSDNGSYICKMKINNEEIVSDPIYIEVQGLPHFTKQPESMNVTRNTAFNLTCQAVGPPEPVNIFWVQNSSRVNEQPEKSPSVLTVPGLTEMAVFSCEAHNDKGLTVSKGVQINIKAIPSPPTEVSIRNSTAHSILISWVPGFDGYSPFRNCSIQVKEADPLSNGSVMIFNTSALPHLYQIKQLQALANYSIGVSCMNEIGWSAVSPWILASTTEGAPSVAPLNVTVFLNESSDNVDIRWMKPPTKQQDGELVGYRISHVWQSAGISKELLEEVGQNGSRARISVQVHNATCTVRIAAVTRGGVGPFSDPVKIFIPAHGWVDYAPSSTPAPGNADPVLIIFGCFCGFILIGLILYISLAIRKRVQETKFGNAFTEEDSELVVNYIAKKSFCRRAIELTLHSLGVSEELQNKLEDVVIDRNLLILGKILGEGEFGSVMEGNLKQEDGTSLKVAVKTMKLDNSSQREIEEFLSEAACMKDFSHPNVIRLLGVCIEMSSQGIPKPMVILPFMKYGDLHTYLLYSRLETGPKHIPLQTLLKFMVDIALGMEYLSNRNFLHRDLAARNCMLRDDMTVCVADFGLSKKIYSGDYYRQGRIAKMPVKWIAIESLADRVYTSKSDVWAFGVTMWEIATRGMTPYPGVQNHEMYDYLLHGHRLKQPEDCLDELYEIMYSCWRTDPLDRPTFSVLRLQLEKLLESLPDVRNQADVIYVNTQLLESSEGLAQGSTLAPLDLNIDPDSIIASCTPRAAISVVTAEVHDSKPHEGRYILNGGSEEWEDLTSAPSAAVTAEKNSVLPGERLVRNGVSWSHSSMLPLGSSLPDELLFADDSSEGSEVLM
NT-3 growth factor receptor (Homo sapiens), sequence (Q16288 32-839 limits assumed): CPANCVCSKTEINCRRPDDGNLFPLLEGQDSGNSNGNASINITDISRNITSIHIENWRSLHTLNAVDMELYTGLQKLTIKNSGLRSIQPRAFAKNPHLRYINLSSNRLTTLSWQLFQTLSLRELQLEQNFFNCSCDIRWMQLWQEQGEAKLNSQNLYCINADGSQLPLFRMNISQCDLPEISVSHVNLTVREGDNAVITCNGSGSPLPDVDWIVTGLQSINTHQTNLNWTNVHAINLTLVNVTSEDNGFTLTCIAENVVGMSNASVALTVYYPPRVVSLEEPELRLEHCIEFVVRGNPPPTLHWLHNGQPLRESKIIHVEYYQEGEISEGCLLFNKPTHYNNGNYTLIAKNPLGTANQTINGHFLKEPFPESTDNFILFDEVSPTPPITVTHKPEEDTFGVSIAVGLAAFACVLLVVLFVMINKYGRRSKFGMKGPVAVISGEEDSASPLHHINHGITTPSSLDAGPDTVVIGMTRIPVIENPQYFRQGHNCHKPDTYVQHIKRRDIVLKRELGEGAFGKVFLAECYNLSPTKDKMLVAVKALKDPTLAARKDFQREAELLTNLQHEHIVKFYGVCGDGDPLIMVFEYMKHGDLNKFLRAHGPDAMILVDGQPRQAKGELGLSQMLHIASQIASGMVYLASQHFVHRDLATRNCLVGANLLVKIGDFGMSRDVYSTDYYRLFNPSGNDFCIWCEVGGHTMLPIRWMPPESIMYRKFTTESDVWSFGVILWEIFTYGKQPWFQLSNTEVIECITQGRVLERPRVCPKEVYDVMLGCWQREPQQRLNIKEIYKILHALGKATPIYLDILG
Protein kinase C iota type (Homo sapiens), sequence (P41743 whole entry): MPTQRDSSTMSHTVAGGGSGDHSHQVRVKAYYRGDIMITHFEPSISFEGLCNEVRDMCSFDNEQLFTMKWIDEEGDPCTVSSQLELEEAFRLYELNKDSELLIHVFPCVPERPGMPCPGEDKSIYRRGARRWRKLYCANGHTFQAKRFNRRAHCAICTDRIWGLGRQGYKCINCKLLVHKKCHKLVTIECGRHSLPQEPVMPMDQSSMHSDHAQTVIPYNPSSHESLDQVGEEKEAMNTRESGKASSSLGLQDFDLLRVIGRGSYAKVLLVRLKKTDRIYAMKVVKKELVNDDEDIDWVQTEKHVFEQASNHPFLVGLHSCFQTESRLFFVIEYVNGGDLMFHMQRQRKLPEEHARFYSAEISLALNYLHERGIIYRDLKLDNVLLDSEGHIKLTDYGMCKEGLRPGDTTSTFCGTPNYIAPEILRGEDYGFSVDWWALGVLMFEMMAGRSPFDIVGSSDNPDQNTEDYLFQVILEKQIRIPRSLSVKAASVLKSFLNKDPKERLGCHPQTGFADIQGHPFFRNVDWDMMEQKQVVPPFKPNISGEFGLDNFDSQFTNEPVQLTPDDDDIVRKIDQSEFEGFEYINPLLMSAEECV
Dual specificity testis-specific protein kinase 2 (Homo sapiens), sequence (Q96S53 whole entry, looked up): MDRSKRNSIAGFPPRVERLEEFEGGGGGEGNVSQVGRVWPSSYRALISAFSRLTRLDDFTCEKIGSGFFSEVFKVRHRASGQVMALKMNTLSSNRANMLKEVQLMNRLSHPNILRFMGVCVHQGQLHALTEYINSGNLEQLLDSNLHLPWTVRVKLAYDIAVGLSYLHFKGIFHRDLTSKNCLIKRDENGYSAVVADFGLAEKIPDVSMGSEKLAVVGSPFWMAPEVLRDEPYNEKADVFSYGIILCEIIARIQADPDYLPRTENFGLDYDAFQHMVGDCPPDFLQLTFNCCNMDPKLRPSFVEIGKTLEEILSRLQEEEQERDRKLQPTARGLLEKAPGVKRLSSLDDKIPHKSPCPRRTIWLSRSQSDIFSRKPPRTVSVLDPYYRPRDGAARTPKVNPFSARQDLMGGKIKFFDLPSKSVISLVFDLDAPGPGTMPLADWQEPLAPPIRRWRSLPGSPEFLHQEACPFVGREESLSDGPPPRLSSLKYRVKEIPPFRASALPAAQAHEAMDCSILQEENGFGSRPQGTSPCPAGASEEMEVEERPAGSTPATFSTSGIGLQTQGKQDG

Question: For `OCCOCc1cn(CCNc2nonc2/C(=N/O)Nc2ccc(F)c(Br)c2)nn1`, which inhibition [1] is on record?
Answer: The inhibition was “inactive”.

Question: And the k el [2]?
Answer: The k el was 0.0003 s⁻¹.

Question: And the inhibition [3]?
Answer: The inhibition was “inactive”.

Question: What about the inhibition [4] of the same molecule?
Answer: Its inhibition is “inactive”.

Question: What about the inhibition [5] of the same molecule?
Answer: The inhibition was “inactive”.

Question: And the Papp B→A [6]?
Answer: Its Papp B→A is 46 ×10⁻⁶ cm/s.

Question: And the inhibition [7]?
Answer: The inhibition was “inactive”.

Question: What about the inhibition [8] of the same molecule?
Answer: The inhibition was “inactive”.

Question: What about the inhibition [9] of the same molecule?
Answer: The inhibition was “inactive”.

Question: And the inhibition [10]?
Answer: The inhibition was “inactive”.

Question: What about the fraction unbound [11] of the same molecule?
Answer: Its fraction unbound is 0.0968.

Question: What about the inhibition [12] of the same molecule?
Answer: The inhibition was “inactive”.

Question: And the inhibition [13]?
Answer: The inhibition was “inactive”.

Question: And the K [14]?
Answer: Its K is 0.0161 min⁻¹.

Question: What about the inhibition [15] of the same molecule?
Answer: Its inhibition is “inactive”.

Question: What about the inhibition [16] of the same molecule?
Answer: Its inhibition is “inactive”.

Question: And the inhibition [17]?
Answer: The inhibition was “inactive”.

Question: What about the inhibition (Mus musculus [18]) of the same molecule?
Answer: The inhibition was “Active”.

Question: And the inhibition [19]?
Answer: The inhibition was “inactive”.

Question: What about the inhibition [20] of the same molecule?
Answer: The inhibition was “inactive”.

Question: And the inhibition [21]?
Answer: The inhibition was “inactive”.

Question: What about the inhibition (Mus musculus [22]) of the same molecule?
Answer: Its inhibition is “inactive”.

Question: What about the inhibition [23] of the same molecule?
Answer: The inhibition was “inactive”.

Question: And the microsomal CLint [24]?
Answer: Its microsomal CLint is 32.2 µL/min/mg.

Question: What about the inhibition [25] of the same molecule?
Answer: Its inhibition is “inactive”.

Question: What about the inhibition [26] of the same molecule?
Answer: The inhibition was “inactive”.

Question: What about the inhibition [27] of the same molecule?
Answer: The inhibition was “inactive”.

Question: And the inhibition [28]?
Answer: Its inhibition is “inactive”.

Question: And the inhibition [29]?
Answer: Its inhibition is “inactive”.

Question: And the inhibition [30]?
Answer: The inhibition was “inactive”.

Question: And the inhibition [31]?
Answer: The inhibition was “inactive”.

Question: What about the inhibition [32] of the same molecule?
Answer: Its inhibition is “inactive”.

Question: And the microsomal CLint [33]?
Answer: The microsomal CLint was 36 µL/min/mg.

Question: And the inhibition [34]?
Answer: Its inhibition is “inactive”.

Question: And the inhibition [35]?
Answer: Its inhibition is “inactive”.

Question: What about the inhibition [36] of the same molecule?
Answer: Its inhibition is “inactive”.

Question: What about the inhibition [37] of the same molecule?
Answer: The inhibition was “inactive”.

Question: What about the inhibition [38] of the same molecule?
Answer: Its inhibition is “inactive”.

Question: And the inhibition [39]?
Answer: Its inhibition is “inactive”.

Question: What about the inhibition [40] of the same molecule?
Answer: Its inhibition is “inactive”.

Question: And the inhibition [41]?
Answer: Its inhibition is “inactive”.

Question: What about the Activity (HCT-116) of the same molecule?
Answer: Its Activity is 0.78%.

Question: And the inhibition [42]?
Answer: The inhibition was “inactive”.

Question: And the inhibition [43]?
Answer: The inhibition was “inactive”.

Question: And the inhibition [44]?
Answer: Its inhibition is “inactive”.

Question: What about the inhibition [45] of the same molecule?
Answer: Its inhibition is “inactive”.

Question: And the microsomal CLint [46]?
Answer: The microsomal CLint was 245 µL/min/mg.

Source: ChEMBL document CHEMBL5055685, “Discovery of the First Potent IDO1/IDO2 Dual Inhibitors: A Promising Strategy for Cancer Immunotherapy” (J Med Chem, 2021)
